Reference: patent publication US9102678B2, “Compounds and methods for inhibiting mitotic progression” (Millennium Pharmaceuticals, Inc., priority 2004, dated 2015)
pIC50: −log10 of the molar value.

biological target: T1, recombinant murine Aurora A enzyme (Mus musculus, UniProt P97477); assay: Aurora A DELFIA Kinase Assay; assay type: biochemical; conditions: mouse Aurora A, 250 μM ATP; threshold less than or equal to 100 nM; read-out: IC50
T1 construct: hexahistidine (His6) (N); made in house; host or cells: insect cells, baculovirus (Bac-to-Bac, Invitrogen)
T1 sequence (P97477 whole entry): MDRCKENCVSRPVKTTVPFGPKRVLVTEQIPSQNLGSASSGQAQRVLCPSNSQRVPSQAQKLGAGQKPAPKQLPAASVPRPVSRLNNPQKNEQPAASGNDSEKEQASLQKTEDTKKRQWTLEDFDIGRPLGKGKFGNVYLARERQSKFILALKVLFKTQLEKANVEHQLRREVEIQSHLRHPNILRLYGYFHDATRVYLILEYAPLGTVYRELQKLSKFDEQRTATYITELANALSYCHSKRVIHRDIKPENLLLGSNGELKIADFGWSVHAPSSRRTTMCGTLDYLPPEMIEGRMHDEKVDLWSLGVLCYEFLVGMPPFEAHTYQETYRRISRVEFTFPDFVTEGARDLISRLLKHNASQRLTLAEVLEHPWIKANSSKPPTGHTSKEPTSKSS

pIC50, ≥ 7.00:
COC(=O)C1CN(C(=O)c2ccc(Nc3ncc4c(n3)-c3ccc(Cl)cc3C(c3c(F)cccc3F)=NC4)cc2)CCN1 (centres unmarked) [Compound I-248, methyl 4-(4-{[9-chloro-7-(2,6-difluorophenyl)-5H-pyrimido[5,4-d][2]benzazepin-2-yl]amino}benzoyl)piperazine-2-carboxylate]
O=C(O)c1ccc(Nc2ncc3c(n2)-c2ccc(C(=O)O)cc2C(c2ccccc2F)=NC3)cc1 [Compound I-249, 2-[(4-carboxyphenyl)amino]-7-(2-fluorophenyl)-5H-pyrimido[5,4-d][2]benzazepine-9-carboxylic acid]
CN(C)C1CCN(C(=N)c2ccc(Nc3ncc4c(n3)-c3ccc(Cl)cc3C(c3c(F)cccc3F)=NC4)cc2)C1 (centres unmarked) [Compound I-250, 9-chloro-7-(2,6-difluorophenyl)-N-{4-[[3-(dimethylamino)pyrrolidin-1-yl](imino)methyl]phenyl}-5H-pyrimido[5,4-d][2]benzazepin-2-amine]
CC1CN(C(=N)c2ccc(Nc3ncc4c(n3)-c3ccc(Cl)cc3C(c3c(F)cccc3F)=NC4)cc2)CC(C)N1 (centres unmarked) [Compound I-251, [9-Chloro-7-(2,6-difluoro-phenyl)-5H-benzo[c]pyrimido[4,5-e]azepin-2-yl]-{4-[(3,5-dimethyl-piperazin-1-yl)-imino-methyl]-phenyl}-amine]
CN(CCN)C(=O)c1ccc(Nc2ncc3c(n2)-c2ccc(Cl)cc2C(c2c(F)cccc2F)=NC3)cc1 [Compound I-252, N-(2-aminoethyl)-4-{[9-chloro-7-(2,6-difluorophenyl)-5H-pyrimido[5,4-d][2]benzazepin-2-yl]amino}-N-methylbenzamide]
CNC1CCCN(C(=O)c2ccc(Nc3ncc4c(n3)-c3ccc(Cl)cc3C(c3c(F)cccc3F)=NC4)cc2)C1 (centres unmarked) [Compound I-253, 9-chloro-7-(2,6-difluorophenyl)-N-(4-{[3-(methylamino)piperidin-1-yl]carbonyl}phenyl)-5H-pyrimido[5,4-d][2]benzazepin-2-amine]
CNCCN(C)C(=O)c1ccc(Nc2ncc3c(n2)-c2ccc(Cl)cc2C(c2c(F)cccc2OC)=NC3)cc1 [Compound I-254, 4-{[9-chloro-7-(2-fluoro-6-methoxyphenyl)-5H-pyrimido[5,4-d][2]benzazepin-2-yl]amino}-N-methyl-N-[2-(methylamino)ethyl]benzamide]
COc1cccc(F)c1C1=NCc2cnc(Nc3ccc(C(=O)N(C)CCN(C)C)cc3)nc2-c2ccc(Cl)cc21 [Compound I-255, 4-{[9-chloro-7-(2-fluoro-6-methoxyphenyl)-5H-pyrimido[5,4-d][2]benzazepin-2-yl]amino}-N-[2-(dimethylamino)ethyl]-N-methylbenzamide]
COc1cccc(Nc2ncc3c(n2)-c2ccc(C(=O)O)cc2C(c2ccccc2F)=NC3)c1 [Compound I-256, 7-(2-fluorophenyl)-2-[(3-methoxyphenyl)amino]-5H-pyrimido[5,4-d][2]benzazepine-9-carboxylic acid]
CN(CCCN)C(=O)c1ccc(Nc2ncc3c(n2)-c2ccc(Cl)cc2C(c2c(F)cccc2F)=NC3)cc1 [Compound I-257, N-(3-aminopropyl)-4-{[9-chloro-7-(2,6-difluorophenyl)-5H-pyrimido[5,4-d][2]benzazepin-2-yl]amino}-N-methylbenzamide]
CN(C)C1CN(C(=N)NC(=O)c2ccc(Nc3ncc4c(n3)-c3ccc(Cl)cc3C(c3c(F)cccc3F)=NC4)cc2)C1 [Compound I-259, 4-{[9-chloro-7-(2,6-difluorophenyl)-5H-pyrimido[5,4-d][2]benzazepin-2-yl]amino}-N-[[3-(dimethylamino)azetidin-1-yl](imino)methyl]benzamide]
CC(C)(N)CNC(=O)c1ccc(Nc2ncc3c(n2)-c2ccc(Cl)cc2C(c2c(F)cccc2F)=NC3)cc1 [Compound I-260, N-(2-amino-2-methylpropyl)-4-{[9-chloro-7-(2,6-difluorophenyl)-5H-pyrimido[5,4-d][2]benzazepin-2-yl]amino}benzamide]
CNCCCN(C)C(=O)c1ccc(Nc2ncc3c(n2)-c2ccc(Cl)cc2C(c2c(F)cccc2OC)=NC3)cc1 [Compound I-261, 4-{[9-chloro-7-(2-fluoro-6-methoxyphenyl)-5H-pyrimido[5,4-d][2]benzazepin-2-yl]amino}-N-methyl-N-[3-(methylamino)propyl]benzamide]
COc1cccc(F)c1C1=NCc2cnc(Nc3ccc(C(=O)N4CCCC(N)C4)cc3)nc2-c2ccc(Cl)cc21 (centres unmarked) [Compound I-262]
CNC1CCCN(C(=O)c2ccc(Nc3ncc4c(n3)-c3ccc(Cl)cc3C(c3c(F)cccc3OC)=NC4)cc2)C1 (centres unmarked) [Compound I-263, 9-chloro-7-(2-fluoro-6-methoxyphenyl)-N-(4-{[3-(methylamino)piperidin-1-yl]carbonyl}phenyl)-5H-pyrimido[5,4-d][2]benzazepin-2-amine]
COc1cccc(F)c1C1=NCc2cnc(Nc3ccc(C(=O)N(C)CCCN)cc3)nc2-c2ccc(Cl)cc21 [Compound I-264, N-(3-aminopropyl)-4-{[9-chloro-7-(2-fluoro-6-methoxyphenyl)-5H-pyrimido[5,4-d][2]benzazepin-2-yl]amino}-N-methylbenzamide]
COc1cccc(F)c1C1=NCc2cnc(Nc3ccc(C(=O)N(C)CCN)cc3)nc2-c2ccc(Cl)cc21 [Compound I-265, N-(2-aminoethyl)-4-{[9-chloro-7-(2-fluoro-6-methoxyphenyl)-5H-pyrimido[5,4-d][2]benzazepin-2-yl]amino}-N-methylbenzamide]
O=C(O)C1CN(C(=O)c2ccc(Nc3ncc4c(n3)-c3ccc(Cl)cc3C(c3c(F)cccc3F)=NC4)cc2)CCN1 (centres unmarked) [Compound I-266, 4-(4-{[9-chloro-7-(2,6-difluorophenyl)-5H-pyrimido[5,4-d][2]benzazepin-2-yl]amino}benzoyl)piperazine-2-carboxylic acid]
CN(C)C1CN(C(=N)c2ccc(Nc3ncc4c(n3)-c3ccc(Cl)cc3C(c3c(F)cccc3F)=NC4)cc2)C1 [Compound I-267, 9-chloro-7-(2,6-difluorophenyl)-N-{4-[[3-(dimethylamino)azetidin-1-yl](imino)methyl]phenyl}-5H-pyrimido[5,4-d][2]benzazepin-2-amine]
CNC1CCN(C(=N)c2ccc(Nc3ncc4c(n3)-c3ccc(Cl)cc3C(c3c(F)cccc3F)=NC4)cc2)C1 (centres unmarked) [Compound I-268, 9-chloro-7-(2,6-difluorophenyl)-N-(4-{imino[3-(methylamino)pyrrolidin-1-yl]methyl}phenyl)-5H-pyrimido[5,4-d][2]benzazepin-2-amine]
CN(C)C1CCN(C(=O)c2cc(Nc3ncc4c(n3)-c3ccc(Cl)cc3C(c3c(F)cccc3F)=NC4)ccc2Cl)CC1 [Compound I-269, 9-chloro-N-(4-chloro-3-{[4-(dimethylamino)piperidin-1-yl]carbonyl}phenyl)-7-(2,6-difluorophenyl)-5H-pyrimido[5,4-d][2]benzazepin-2-amine]
CC1(C)CN=C(c2ccc(Nc3ncc4c(n3)-c3ccc(Cl)cc3C(c3c(F)cccc3F)=NC4)cc2)N1 [Compound I-270, 9-chloro-7-(2,6-difluorophenyl)-N-[4-(5,5-dimethyl-4,5-dihydro-1H-imidazol-2-yl)phenyl]-5H-pyrimido[5,4-d][2]benzazepin-2-amine]
NCC#Cc1ccc2c(c1)C(c1c(F)cccc1F)=NCc1cnc(Nc3ccc(C(=O)O)cc3)nc1-2 [Compound I-272, 4-{[9-(3-aminoprop-1-yn-1-yl)-7-(2,6-difluorophenyl)-5H-pyrimido[5,4-d][2]benzazepin-2-yl]amino}benzoic acid]
O=C(O)c1ccc(Nc2ncc3c(n2)-c2ccc(Br)cc2C(c2c(F)cccc2F)=NC3)cc1 [Compound I-274, 4-{[9-bromo-7-(2,6-difluorophenyl)-5H-pyrimido[5,4-d][2]benzazepin-2-yl]amino}benzoic acid]
O=C(O)c1ccc(Nc2ncc3c(n2)-c2ccc(Cl)cc2C(c2ccccc2C(F)(F)F)=NC3)cc1 [Compound I-277, 4-({9-chloro-7-[2-(trifluoromethyl)phenyl]-5H-pyrimido[5,4-d][2]benzazepin-2-yl}amino)benzoic acid]
NC1CN(C(=O)c2ccc(Nc3ncc4c(n3)-c3ccc(Cl)cc3C(c3c(F)cccc3F)=NC4)cc2)C1 [Compound I-278, N-{4-[(3-aminoazetidin-1-yl)carbonyl]phenyl}-9-chloro-7-(2,6-difluorophenyl)-5H-pyrimido[5,4-d][2]benzazepin-2-amine]
CN1CCN(C(=O)Nc2ccc(Nc3ncc4c(n3)-c3ccc(Cl)cc3C(c3c(F)cccc3F)=NC4)cc2)CC1 [Compound I-280, 4-Methyl-piperazine-1-carboxylic acid {4-[9-chloro-7-(2,6-difluoro-phenyl)-5H-benzo[c]pyrimido[4,5-e]azepin-2-ylamino]-phenyl}-amide]
CNC1CCN(C(=O)c2cc(Nc3ncc4c(n3)-c3ccc(Cl)cc3C(c3c(F)cccc3F)=NC4)ccc2Cl)C1 (centres unmarked) [Compound I-281, 9-chloro-N-(4-chloro-3-{[3-(methylamino)pyrrolidin-1-yl]carbonyl}phenyl)-7-(2,6-difluorophenyl)-5H-pyrimido[5,4-d][2]benzazepin-2-amine]
CNC1CCN(C(=O)c2cc(Nc3ncc4c(n3)-c3ccc(Cl)cc3C(c3c(F)cccc3F)=NC4)ccc2Cl)CC1 [Compound I-282, 9-chloro-N-(4-chloro-3-{[4-(methylamino)piperidin-1-yl]carbonyl}phenyl)-7-(2,6-difluorophenyl)-5H-pyrimido[5,4-d][2]benzazepin-2-amine]
